Experimental data taken from patent US20090018201A1, “Method of Combating Bugs” (BASF Aktiengesellschaft, priority 2005, published 2009).

Columns and labels:
Experiment in all cases: Field test, activity against bugs on treated host plants
Assay type in all cases: in vivo
[1] = test system: Cletus trigonus (Slender rice bug); conditions: crop Rice; rate 50 ppm (the 1st table r14); field plots, spray
Procedure: (§1) Host plants (such as rice, wheat, and cabbage) were treated with 50, 150 or 300 ppm of a compound of formula I. Treatments were diluted in water and applied at 400 to 600 liters/hectare to experimental plots using standard application equipment (such as a backpack sprayer). Each treatment was replicated 3 times and comprised an area of approximately 30 square meters. Pre-treatment evaluations of the number of live insects per plant were made one day prior to first treatment. Post-treatment evaluations were made at 5 to 7 day intervals. Field studies were conducted under ambient conditions during normal growing season.

[2] = test system: Eurydema ornatum (Cabbage bug); conditions: crop Cabbage; rate 50 ppm (the 1st table r13); field plots, spray
Procedure: as §1

[3] = test system: Euschistus spp (Stink bug spp.); conditions: crop Rice; rate 300 ppm (the 1st table r12); field plots, spray
Procedure: as §1

[4] = test system: Halticus bracteatus (Garden fleahopper); conditions: crop Alfalfa; rate 300 ppm (the 1st table r11); field plots, spray
Procedure: as §1

[5] = test system: Lagynotomus elongatus (Brown rice stink bug); conditions: crop Rice; rate 150 ppm (the 1st table r10); field plots, spray
Procedure: as §1

[6] = test system: Leptocorisa corbetti (Leaf-footed bug); conditions: crop Rice; rate 50 ppm (the 1st table r9); field plots, spray
Procedure: as §1

[7] = test system: Nezara antennata (Common green stink bug); conditions: crop Rice; rate 300 ppm (the 1st table r6); field plots, spray
Procedure: as §1

[8] = test system: Paromius exiguus; conditions: crop Rice; rate 300 ppm (the 1st table r5); field plots, spray
Procedure: as §1

[9] = test system: Stenotus rubrovittatus (Sorghum plant bug); conditions: crop Rice; rate 50 ppm (the 1st table r4); field plots, spray
Procedure: as §1

[10] = test system: Trigonotylus coelestialum (Rice leaf bug); conditions: crop Rice; rate 50 ppm (the 1st table r3); field plots, spray
Procedure: as §1

[11] = test system: Lygus hesperus (Western plant bug); conditions: crop Alfalfa; rate 100 ppm (the 1st table r8); field plots, spray
Procedure: […] Treatments were diluted in water and applied at 400 to 600 liters/hectare to experimental plots using standard application equipment (such as a backpack sprayer). Each treatment was replicated 3 times and comprised an area of approximately 30 square meters. Pre-treatment evaluations of the number of live insects per plant were made one day prior to first treatment. Post-treatment evaluations were made at 5 to 7 day intervals. Field studies were conducted under ambient conditions during normal growing season.

Measured: control

CCNC(=NNc1c(Cl)cc(C(F)(F)F)cc1Cl)C1(C)CC1(Cl)Cl (stereo not drawn) [N-ethyl-2,2-dichloro-1-methylcyclopropane-carboxamide, 2-(2,6-dichloro-α,α,α-trifluoro-p-tolyl)hydrazone]
over 75%: all assays above
